According to article PMC11678116 (Molecules, 2024):
Where “and” joins values, the source holds several entries; their conditions need not be identical. Equal entries are not always repeated. Where two headings read alike, the source gives them in different places. Marks after values point to notes of the source that are not given here.

Assays:
[1] = test system: P. falciparum 3D7 (Pf3D7); details: CQ-sensitive strain; cited from earlier work
[2] = test system: P. falciparum Dd2 (PfDd2); details: multi-drug resistant strain; cited from earlier work
[3] = test system: P. falciparum 3D7 (Pf3D7); assay: In vitro drug sensitivity assay (HRP2-ELISA) against erythrocytic stage, CQ-sensitive strain; assay type: cell-based; details: Plasmodium falciparum, mean ± SD (n ≥ 2)
Procedure: Briefly, 96-well plates were pre-coated with the tested compounds in a three-fold dilution before ring-stage parasites were added to the complete culture medium at a haematocrit of 1.5% and a parasitaemia of 0.05%. […] All compounds were evaluated in duplicate in at least two independent experiments. The IC50 was determined by non-linear regression analysis of log concentration-response curves using the drc-package v0.9.0 of R v2.6.1 [42].

[4] = test system: P. falciparum Dd2 (PfDd2); assay: microbe, parasite or virus in culture; assay type: cell-based; details: Plasmodium falciparum, DD2, read-out: IC50 PfDd2
Procedure: The resistance index (RI), which represents a ratio between IC50 obtained against PfDd2 and Pf3D7, was also calculated (Table 3).
Briefly, 96-well plates were pre-coated with the tested compounds in a three-fold dilution before ring-stage parasites were added to the complete culture medium at a haematocrit of 1.5% and a parasitaemia of 0.05%. After three days of incubation at 37 °C, 5% CO2, and 5% oxygen, plates were frozen until analysed by HRP2-ELISA. All compounds were evaluated in duplicate in at least two independent experiments. The IC50 was determined by non-linear regression analysis of log concentration-response curves using the drc-package v0.9.0 of R v2.6.1 [42].

[5] = biological target: T1, human serum albumin (HSA) (Homo sapiens, UniProt P02768); assay: biochemical
T1 sequence (P02768 25-609): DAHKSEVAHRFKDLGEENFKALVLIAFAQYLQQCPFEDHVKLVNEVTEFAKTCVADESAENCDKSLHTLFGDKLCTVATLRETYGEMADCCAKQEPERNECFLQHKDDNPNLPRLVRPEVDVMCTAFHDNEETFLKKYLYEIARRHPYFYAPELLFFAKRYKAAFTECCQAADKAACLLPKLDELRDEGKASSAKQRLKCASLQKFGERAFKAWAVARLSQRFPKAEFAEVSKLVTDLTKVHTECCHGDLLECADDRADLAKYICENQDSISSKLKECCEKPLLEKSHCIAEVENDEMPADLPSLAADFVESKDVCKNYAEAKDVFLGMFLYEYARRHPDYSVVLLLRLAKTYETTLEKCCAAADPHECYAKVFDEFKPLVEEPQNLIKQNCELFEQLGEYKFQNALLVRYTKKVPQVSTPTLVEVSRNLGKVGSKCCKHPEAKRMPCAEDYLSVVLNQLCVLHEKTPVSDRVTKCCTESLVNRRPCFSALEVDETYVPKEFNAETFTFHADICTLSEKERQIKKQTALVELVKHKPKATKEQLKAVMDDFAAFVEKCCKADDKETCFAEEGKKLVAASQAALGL
Procedure: (§3) The electronic absorption (UV/vis) spectra were recorded on a Varian Cary 100 Bio spectrophotometer (Varian, Inc., Palo Alto, CA, USA). Fluorescence measurements were performed on a Varian Cary Eclipse fluorimeter (Varian, Inc., CA, USA), taking care that the absorbance of a sample at the excitation wavelength was > 0.05 to avoid any impact of the inner filter effect.
(§4) Human serum albumin was purchased from Sigma-Aldrich (Sigma-Aldrich, St. Louis, MO, USA) supplier, and dissolved in milli Q (MQ) water.
(§5) Fluorimetric titration experiments were performed by adding aliquots of the polynucleotide stock solution into the solution of the studied dye. […] In both sets of experiments (fluorimetric and CD titrations), a buffer background was subtracted from each spectrum. Every reported spectrophotometric titration was the average of at least two measurements.

[6] = biological target: T1, human serum albumin (HSA); assay: Fluorimetric titration with HSA
Procedure: as §3, §4, §5

HepG2 cells = assay: In vitro cytotoxicity, neutral red assay; assay type: cell-based; details: Homo sapiens, HepG2, 24 h, one day of incubation, mean ± SD (n ≥ 2)
Procedure: The cytotoxicity of the second-generation harmiquins 33–45 was assessed against HepG2 cells to determine the selectivity of the tested compounds towards P. falciparum in comparison to mammalian cells (Table 4).
Cytotoxicity against a human cell line (HepG2) was evaluated using the neutral red assay with minor modifications. In brief, human cells were seeded to a 96-well plate in a complete culture medium; on the following day, a serial dilution of the respective compound was added. After one day of incubation, cytotoxicity was evaluated by the addition of neutral red, subsequent lysis of cells, and measurement of absorbance (540 nm) in a plate reader (CLARIOstar, BMG Labtech). The IC50 was determined similarly to the in vitro drug assay against P. falciparum. To assess the safety of a compound, SI was calculated as the fractional ratio between the IC50s for HepG2 and P. falciparum 3D7 strain.

[7] = biological target: poly A–poly U (pApU, ds-RNA); assay: Fluorimetric titration with poly A–poly U; assay type: binding
Procedure: The strong emission and favourable Stokes shift of emission maxima allowed the performance of fluorimetric titrations with ds-DNA/RNA at very low (5 µM) concentrations of investigated compounds.
(§1) The titration data are processed by a non-linear fitting procedure to the Scatchard equation [44, 45, 46], yielding binding constants (Supplemental Information, Figures S5–S12, Table 6).
(§2) Polynucleotides were purchased as noted: calf thymus (ct) DNA, poly dAdT–poly dAdT, poly dGdC–poly dGdC, and poly A–poly U (Sigma Aldrich, St. Louis, MO, USA), and dissolved in sodium cacodylate buffer (I = 0.05 M, pH = 7.0).

calf thymus (ct)-DNA = assay type: binding; details: for log Ks ctDNA: pH 7; for ΔInt ctDNA: ΔInt = Int(100% complex)/Int0
From the text: as §1, §2

poly(dAdT)2 = assay type: binding
From the text: as §1, §2

SMILES: COc1ccc2c3ccnc(C)c3n(CCNC(=O)CNc3ccnc4cc(Cl)ccc34)c2c1 [A]
- IC50 [1]: 0.002 ± 0.0003 µM
- IC50 [2]: 0.0162 ± 0.00283 µM

SMILES: COc1ccc2c3ccnc(C)c3n(Cc3cn(CCNc4ccnc5cc(Cl)ccc45)nn3)c2c1 [B]
- IC50 [1]: 0.0116 ± 0.0038 µM
- IC50 [2]: 0.205 ± 0.00989 µM

SMILES: CCOc1ccc2c3ccnc(C)c3n(CCNC(=O)CNc3ccnc4cc(Cl)ccc34)c2c1 [Compound 33, 2-((7-Chloroquinolin-4-yl)amino)-N-(2-(7-ethoxy-1-methyl-9H-pyrido[3,4-b]indol-9-yl)ethyl)acetamide]
- IC50 [3]: 0.0047 ± 0.0013 µM
- IC50 [4]: 0.0065 ± 0.0025 µM

SMILES: CCCOc1ccc2c3ccnc(C)c3n(CCNC(=O)CNc3ccnc4cc(Cl)ccc34)c2c1 [Compound 34, 2-((7-Chloroquinolin-4-yl)amino)-N-(2-(1-methyl-7-propoxy-9H-pyrido[3,4-b]indol-9-yl)ethyl)acetamide]
- Kd [5]: 0.794 µM
- ΔInt HSA [6]: (62.8)
- IC50 [3]: 0.011 ± 0.0015 µM
- IC50 (HepG2 cells): 18.2 ± 1.8 µM
- log Ks pApU ([7]; estimation only, almost linear emission change, pH 7.0, sodium cacodylate buffer, I = 0.05 M): >4 ^c
- IC50 [4]: 0.0177 ± 0.0087 µM
- log Ks toward GC-containing DNAs (calf thymus (ct)-DNA): 6–7
- log Ks ctDNA (calf thymus (ct)-DNA): 7.3
- ΔInt ctDNA (calf thymus (ct)-DNA): (0.57)
- log Ks toward AT-DNA and AU-RNA (poly(dAdT)2): 4–5
- log Ks p(dA-dT)2 (poly(dAdT)2; pH 7): 5.2
- ΔInt p(dA-dT)2 (poly(dAdT)2; ΔInt = Int(100% complex)/Int0): (2.28)

SMILES: Cc1nccc2c3ccc(OC(C)C)cc3n(CCNC(=O)CNc3ccnc4cc(Cl)ccc34)c12 [Compound 35, 2-((7-Chloroquinolin-4-yl)amino)-N-(2-(7-isopropoxy-1-methyl-9H-pyrido[3,4-b]indol-9-yl)ethyl)acetamide]
- IC50 [3]: 0.0281 ± 0.0005 µM
- IC50 (HepG2 cells): 127 ± 31.5 µM
- IC50 [4]: 0.0265 ± 0.0045 µM

SMILES: COc1ccc2c(c1)c1ccnc(C)c1n2CCNC(=O)CNc1ccnc2cc(Cl)ccc12 [Compound 36, 2-((7-Chloroquinolin-4-yl)amino)-N-(2-(6-methoxy-1-methyl-9H-pyrido[3,4-b]indol-9-yl)ethyl)acetamide]
- IC50 [3]: 0.0166 ± 0.0021 µM
- IC50 (HepG2 cells): 24.3 ± 3.4 µM
- IC50 [4]: 0.0367 ± 0.004 µM

SMILES: CCCOc1ccc2c(c1)c1ccnc(C)c1n2CCNC(=O)CNc1ccnc2cc(Cl)ccc12 [Compound 37, 2-((7-Chloroquinolin-4-yl)amino)-N-(2-(1-methyl-6-propoxy-9H-pyrido[3,4-b]indol-9-yl)ethyl)acetamide]
- IC50 [3]: 0.0046 ± 0.0006 µM
- IC50 (HepG2 cells): 35.8 ± 4.3 µM
- IC50 [4]: 0.0105 ± 0.0004 µM

SMILES: CCOc1ccc2c3ccnc(C)c3n(Cc3cn(CCNc4ccnc5cc(Cl)ccc45)nn3)c2c1 [Compound 38, 7-Chloro-N-(2-(4-((7-ethoxy-1-methyl-9H-pyrido[3,4-b]indol-9-yl)methyl)-1H-1,2,3-triazol-1-yl)ethyl)quinolin-4-amine]
- IC50 [3]: 0.0187 ± 0.0047 µM
- IC50 (HepG2 cells): 29.6 ± 6 µM
- IC50 [4]: 0.0822 ± 0.0022 µM

SMILES: CCCOc1ccc2c3ccnc(C)c3n(Cc3cn(CCNc4ccnc5cc(Cl)ccc45)nn3)c2c1 [Compound 39, 7-Chloro-N-(2-(4-((1-methyl-7-propoxy-9H-pyrido[3,4-b]indol-9-yl)methyl)-1H-1,2,3-triazol-1-yl)ethyl)quinolin-4-amine]
- Kd [5]: 6.31 µM and 7.94 µM
- IC50 [3]: 0.0068 ± 0.004 µM
- IC50 (HepG2 cells): 14.4 ± 1.7 µM
- emission response to AU-RNA ([7]; compound 5 µM, fluorimetric titration): completely insensitive
- IC50 [4]: 0.0201 ± 0.0022 µM
- log Ks toward GC-containing DNAs (calf thymus (ct)-DNA): 4–5
- log Ks ctDNA (calf thymus (ct)-DNA): 5.5
- ΔInt ctDNA (calf thymus (ct)-DNA): (0.59)
- emission response to AT-DNA (poly(dAdT)2): completely insensitive

SMILES: Cc1nccc2c3ccc(OC(C)C)cc3n(Cc3cn(CCNc4ccnc5cc(Cl)ccc45)nn3)c12 [Compound 40, 7-Chloro-N-(2-(4-((7-isopropoxy-1-methyl-9H-pyrido[3,4-b]indol-9-yl)methyl)-1H-1,2,3-triazol-1-yl)ethyl)quinolin-4-amine]
- IC50 [3]: 0.025 ± 0.0033 µM
- IC50 (HepG2 cells): 26.9 ± 0.9 µM
- IC50 [4]: 0.0333 ± 0.0016 µM

SMILES: COc1ccc2c(c1)c1ccnc(C)c1n2Cc1cn(CCNc2ccnc3cc(Cl)ccc23)nn1 [Compound 41, 7-Chloro-N-(2-(4-((6-methoxy-1-methyl-9H-pyrido[3,4-b]indol-9-yl)methyl)-1H-1,2,3-triazol-1-yl)ethyl)quinolin-4-amine]
- IC50 [3]: 0.0185 ± 0.0061 µM
- IC50 (HepG2 cells): 32.1 ± 1.1 µM
- IC50 [4]: 0.0987 ± 0.0363 µM

SMILES: CCCOc1ccc2c(c1)c1ccnc(C)c1n2Cc1cn(CCNc2ccnc3cc(Cl)ccc23)nn1 [Compound 42, 7-Chloro-N-(2-(4-((1-methyl-6-propoxy-9H-pyrido[3,4-b]indol-9-yl)methyl)-1H-1,2,3-triazol-1-yl)ethyl)quinolin-4-amine]
- IC50 [3]: 0.0076 ± 0.0002 µM
- IC50 (HepG2 cells): 20.3 ± 1.6 µM
- IC50 [4]: 0.0155 ± 0.0017 µM

SMILES: CCc1nccc2c3ccccc3n(Cc3cn(CCNc4ccnc5cc(Cl)ccc45)nn3)c12 [Compound 43, 7-Chloro-N-(2-(4-((1-ethyl-9H-pyrido[3,4-b]indol-9-yl)methyl)-1H-1,2,3-triazol-1-yl)ethyl)quinolin-4-amine]
- IC50 [3]: 0.0884 ± 0.0005 µM
- IC50 (HepG2 cells): 68.2 ± 6.1 µM
- IC50 [4]: 0.204 ± 0.0732 µM

SMILES: CCCc1nccc2c3ccccc3n(Cc3cn(CCNc4ccnc5cc(Cl)ccc45)nn3)c12 [Compound 44, 7-Chloro-N-(2-(4-((1-propyl-9H-pyrido[3,4-b]indol-9-yl)methyl)-1H-1,2,3-triazol-1-yl)ethyl)quinolin-4-amine]
- IC50 [3]: 0.0969 ± 0.0015 µM
- IC50 (HepG2 cells): 68.9 ± 4.3 µM
- IC50 [4]: 0.214 ± 0.0718 µM

SMILES: CC(C)c1nccc2c3ccccc3n(Cc3cn(CCNc4ccnc5cc(Cl)ccc45)nn3)c12 [Compound 45, 7-Chloro-N-(2-(4-((1-isopropyl-9H-pyrido[3,4-b]indol-9-yl)methyl)-1H-1,2,3-triazol-1-yl)ethyl)quinolin-4-amine]
- IC50 [3]: 0.0159 ± 0.0115 µM
- IC50 (HepG2 cells): 128 ± 2.7 µM
- IC50 [4]: 0.0188 ± 0.0091 µM
